According to ChEMBL document CHEMBL3885881, “DrugMatrix”:

Species: Rattus norvegicus
Experiment: DrugMatrix - Regimen: Daily Repeat
Type: toxicity, organism-based, Sprague-Dawley
Set-up: regimen Daily Repeat, gender Male, age 6-8 weeks
Settings: in vivo, po, route oral GAVAGE, […]; for ABSOLUTE BASOPHIL / ABSOLUTE EOSINOPHIL / ABSOLUTE LYMPHOCYTE / ABSOLUTE MONOCYTE / ABSOLUTE SEGMENTED NEUTROPHIL / BASOPHIL / EOSINOPHIL / ERYTHROCYTE COUNT / HEMATOCRIT / HEMOGLOBIN / LEUKOCYTE COUNT / LYMPHOCYTE / MEAN CORPUSCULAR HEMOGLOBIN / MEAN CORPUSCULAR HEMOGLOBIN CONCENTRATION / MEAN CORPUSCULAR VOLUME / MONOCYTE / NEUTROPHIL / NUCLEATED RED BLOOD CELLS / PLATELET COUNT: tissue Blood; for ALANINE AMINOTRANSFERASE / ALBUMIN / ALKALINE PHOSPHATASE / ASPARTATE AMINOTRANSFERASE / BLOOD UREA NITROGEN / CARBON DIOXIDE / CHLORIDE / CHOLESTEROL / CREATINE PHOSPHOKINASE / CREATININE / GLUCOSE / LACTATE DEHYDROGENASE / LIPASE / PHOSPHORUS / POTASSIUM / SODIUM / TOTAL BILIRUBIN / TOTAL PROTEIN / URIC ACID: tissue Plasma
[1] = 80 mg/kg, 120 h, dose level Low, time 5 day
[2] = 338 mg/kg, 72 h, dose level High, time 3 day
[3] = 338 mg/kg, 120 h, dose level High, time 5 day

Structure (SMILES): CC(C)(Oc1ccc(C2CCCc3ccccc32)cc1)C(=O)O (centres undefined) [NAFENOPIN]
- ABSOLUTE BASOPHIL [1]: 0 CELLS/uL
- ABSOLUTE EOSINOPHIL [1]: 0 CELLS/uL
- ABSOLUTE LYMPHOCYTE [1]: 12561 CELLS/uL
- ABSOLUTE MONOCYTE [1]: 516.67 CELLS/uL
- ABSOLUTE SEGMENTED NEUTROPHIL [1]: 1089 CELLS/uL
- BASOPHIL [1]: 0%
- EOSINOPHIL [1]: 0%
- ERYTHROCYTE COUNT [1]: 5.43 x10E6/uL
- HEMATOCRIT [1]: 32.67%
- HEMOGLOBIN [1]: 12.23 G/DL
- LEUKOCYTE COUNT [1]: 14.17 x10E3/uL
- LYMPHOCYTE [1]: 88.67%
- MEAN CORPUSCULAR HEMOGLOBIN [1]: 22.57 pg
- MEAN CORPUSCULAR HEMOGLOBIN CONCENTRATION [1]: 37.5 G/DL
- MEAN CORPUSCULAR VOLUME [1]: 60.17 fL
- MONOCYTE [1]: 3.67%
- NEUTROPHIL [1]: 7.67%
- NUCLEATED RED BLOOD CELLS [1]: 0 /100WBC
- PLATELET COUNT [1]: 828.67 x10E3/uL
- ALANINE AMINOTRANSFERASE [1]: 61.67 u/L
- ALBUMIN [1]: 5.07 G/DL
- ALKALINE PHOSPHATASE [1]: 578 u/L
- ASPARTATE AMINOTRANSFERASE [1]: 85.33 u/L
- BLOOD UREA NITROGEN [1]: 14.33 mg/dL
- CARBON DIOXIDE [1]: 32 mmol/L
- CHLORIDE [1]: 97 MEQ/L
- CHOLESTEROL [1]: 65.33 mg/dL
- CREATINE PHOSPHOKINASE [1]: 403.67 u/L
- CREATININE [1]: 0.25 mg/dL
- GLUCOSE [1]: 148.67 mg/dL
- LACTATE DEHYDROGENASE [1]: 257.33 u/L
- LIPASE [1]: 9.67 u/L
- PHOSPHORUS [1]: 13.43 mg/dL
- POTASSIUM [1]: 6.96 MEQ/L
- SODIUM [1]: 142.07 MEQ/L
- TOTAL BILIRUBIN [1]: 0.13 mg/dL
- TOTAL PROTEIN [1]: 6.07 G/DL
- URIC ACID [1]: 1.23 mg/dL
- ABSOLUTE BASOPHIL [2]: 0 CELLS/uL
- ABSOLUTE EOSINOPHIL [2]: 40.33 CELLS/uL
- ABSOLUTE LYMPHOCYTE [2]: 10009.33 CELLS/uL
- ABSOLUTE MONOCYTE [2]: 484 CELLS/uL
- ABSOLUTE SEGMENTED NEUTROPHIL [2]: 1499.67 CELLS/uL
- BASOPHIL [2]: 0%
- EOSINOPHIL [2]: 0.33%
- ERYTHROCYTE COUNT [2]: 5.41 x10E6/uL
- HEMATOCRIT [2]: 32.97%
- HEMOGLOBIN [2]: 12.87 G/DL
- LEUKOCYTE COUNT [2]: 12.03 x10E3/uL
- LYMPHOCYTE [2]: 83.33%
- MEAN CORPUSCULAR HEMOGLOBIN [2]: 23.77 pg
- MEAN CORPUSCULAR HEMOGLOBIN CONCENTRATION [2]: 39.03 G/DL
- MEAN CORPUSCULAR VOLUME [2]: 60.93 fL
- MONOCYTE [2]: 4%
- NEUTROPHIL [2]: 12.33%
- NUCLEATED RED BLOOD CELLS [2]: 0 /100WBC
- PLATELET COUNT [2]: 1008 x10E3/uL
- ALANINE AMINOTRANSFERASE [2]: 113 u/L
- ALBUMIN [2]: 4.73 G/DL
- ALKALINE PHOSPHATASE [2]: 921 u/L
- ASPARTATE AMINOTRANSFERASE [2]: 143 u/L
- BLOOD UREA NITROGEN [2]: 13.67 mg/dL
- CARBON DIOXIDE [2]: 22 mmol/L
- CHLORIDE [2]: 104 MEQ/L
- CHOLESTEROL [2]: 59.67 mg/dL
- CREATINE PHOSPHOKINASE [2]: 584.33 u/L
- CREATININE [2]: 0.7 mg/dL
- GLUCOSE [2]: 143.67 mg/dL
- LACTATE DEHYDROGENASE [2]: 415.33 u/L
- LIPASE [2]: 10 u/L
- PHOSPHORUS [2]: 12.27 mg/dL
- POTASSIUM [2]: 6.14 MEQ/L
- SODIUM [2]: 143.63 MEQ/L
- TOTAL BILIRUBIN [2]: 0.2 mg/dL
- TOTAL PROTEIN [2]: 5.63 G/DL
- URIC ACID [2]: 1.23 mg/dL
- ABSOLUTE BASOPHIL [3]: 0 CELLS/uL
- ABSOLUTE EOSINOPHIL [3]: 38 CELLS/uL
- ABSOLUTE LYMPHOCYTE [3]: 11719.67 CELLS/uL
- ABSOLUTE MONOCYTE [3]: 400 CELLS/uL
- ABSOLUTE SEGMENTED NEUTROPHIL [3]: 1175.67 CELLS/uL
- BASOPHIL [3]: 0%
- EOSINOPHIL [3]: 0.33%
- ERYTHROCYTE COUNT [3]: 5.3 x10E6/uL
- HEMATOCRIT [3]: 30.47%
- HEMOGLOBIN [3]: 11.43 G/DL
- LEUKOCYTE COUNT [3]: 13.33 x10E3/uL
- LYMPHOCYTE [3]: 88%
- MEAN CORPUSCULAR HEMOGLOBIN [3]: 21.6 pg
- MEAN CORPUSCULAR HEMOGLOBIN CONCENTRATION [3]: 37.53 G/DL
- MEAN CORPUSCULAR VOLUME [3]: 57.53 fL
- MONOCYTE [3]: 3%
- NEUTROPHIL [3]: 8.67%
- NUCLEATED RED BLOOD CELLS [3]: 0 /100WBC
- PLATELET COUNT [3]: 850.67 x10E3/uL
- ALANINE AMINOTRANSFERASE [3]: 87 u/L
- ALBUMIN [3]: 4.73 G/DL
- ALKALINE PHOSPHATASE [3]: 891.33 u/L
- ASPARTATE AMINOTRANSFERASE [3]: 88.67 u/L
- BLOOD UREA NITROGEN [3]: 12.67 mg/dL
- CARBON DIOXIDE [3]: 29 mmol/L
- CHLORIDE [3]: 98 MEQ/L
- CHOLESTEROL [3]: 96.67 mg/dL
- CREATINE PHOSPHOKINASE [3]: 209.67 u/L
- CREATININE [3]: 0.65 mg/dL
- GLUCOSE [3]: 129.67 mg/dL
- LACTATE DEHYDROGENASE [3]: 216.67 u/L
- LIPASE [3]: 10 u/L
- PHOSPHORUS [3]: 12.7 mg/dL
- POTASSIUM [3]: 6.55 MEQ/L
- SODIUM [3]: 143.43 MEQ/L
- TOTAL BILIRUBIN [3]: 0.23 mg/dL
- TOTAL PROTEIN [3]: 5.67 G/DL
- URIC ACID [3]: 1.3 mg/dL
